# Reference: patent US9585823B2, “Personal care compositions comprising a multi-active system for down regulating cytokines irritation” (The Gillette Company, priority 2010, dated 2017)
# Test system: hTERT keratinocytes
# Format: cell-based
# Description: To ensure proper levels of the biological active molecules for the in vitro study, dilution studies were conducted and ATP was analyzed for the highest non-cytotoxic concentration. Olivem 460 (lot LG0833 from B&T, Milan Italy) at a level of 0.000156% and SymRelief (from Symrise) at a level of 0.0625% were determined to be appropriate respective concentrations for this study. ATP analysis is described below.
# ATP analysis was conducted using Cell Titer-Glo. The CellTiter-Glo Luminescent Cell Viability Assay was obtained from Promega Corporation (Madison, Wis.). This assay is a homogeneous method for determining the number of viable cells in culture based on quantitation of ATP present, signaling the presence of metabolically active cells. After the final treatment and supernatants collected, the CellTiter-Glo reagent was added. The reagent was then transferred to a BD Falcon (Franklin Lakes, N.J.) Microtest 96-well Assay Plate (black, flat bottom, reference 353945, lot 041151). Luminescence was read on a Perkin Elmer Fluorimeter (Wallac Envision 2101 Multilabel Reader). Relative luminescence units were plotted in percent control versus treatment concentration.
row,Substance,highest non-cytotoxic concentration (level determined appropriate for the study) [%]
1,Bisabolol (and) Zingiber Officinale Root Extract [SymRelief],0.0625
2,Sodium PEG-7 Olive Oil Carboxylate [Olivem 460],0.000156
